# Where two headings read alike, the source gives them in different places.
# Key:
# [1] = target: T1, DCAF15-RBM39 ternary complex (Homo sapiens, UniProt Q14498+Q66K64); assay: Compound-induced DCAF15-RBM39 ternary complex formation, AlphaLISA; format: biochemical
# T1 construct: (RRM2)
# Procedure: Compound-induced DCAF15-RBM39 ternary complex formation was monitored using AlphaLISA® assays (Perkin Elmer, Waltham, MA). […] 9.8 ul of this protein mixture was then mixed with the compounds in the assay plate and incubated for one hour at room temperature. Reaction mixtures with no compounds added were included as negative controls, while a His-tagged and biotinylated GST protein was included to track general assay performance. […] The beads were then added to the assay plate sequentially with incubation at room temperature for 1-2 hours after each addition.
# DCAF15 = DCAF15 (Homo sapiens, UniProt Q66K64); assay: Binary interaction between compounds and DCAF15, HTRF competition assay; format: binding; settings: HTRF competition with Alexa Fluor 647 tracer, His-tagged DCAF15 complex; read-out: DCAF15 IC50
# Chain of DCAF15 (Q66K64 whole entry): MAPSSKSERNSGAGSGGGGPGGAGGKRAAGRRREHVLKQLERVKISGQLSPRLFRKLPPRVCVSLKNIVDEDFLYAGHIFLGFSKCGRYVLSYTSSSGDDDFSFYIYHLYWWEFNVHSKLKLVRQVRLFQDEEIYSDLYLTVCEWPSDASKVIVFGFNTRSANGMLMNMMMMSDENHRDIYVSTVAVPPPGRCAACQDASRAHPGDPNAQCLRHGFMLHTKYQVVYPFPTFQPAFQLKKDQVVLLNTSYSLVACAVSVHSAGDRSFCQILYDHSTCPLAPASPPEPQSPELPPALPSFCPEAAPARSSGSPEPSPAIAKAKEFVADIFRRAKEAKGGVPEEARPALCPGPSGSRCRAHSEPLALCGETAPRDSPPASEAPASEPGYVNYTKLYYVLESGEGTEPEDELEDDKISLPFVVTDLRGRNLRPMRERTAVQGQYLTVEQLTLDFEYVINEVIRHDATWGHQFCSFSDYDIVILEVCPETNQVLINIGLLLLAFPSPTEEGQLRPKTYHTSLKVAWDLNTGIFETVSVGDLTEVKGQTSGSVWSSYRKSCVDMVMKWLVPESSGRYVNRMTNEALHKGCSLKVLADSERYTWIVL
# Chain of DCAF15 (Q16531 whole entry partner): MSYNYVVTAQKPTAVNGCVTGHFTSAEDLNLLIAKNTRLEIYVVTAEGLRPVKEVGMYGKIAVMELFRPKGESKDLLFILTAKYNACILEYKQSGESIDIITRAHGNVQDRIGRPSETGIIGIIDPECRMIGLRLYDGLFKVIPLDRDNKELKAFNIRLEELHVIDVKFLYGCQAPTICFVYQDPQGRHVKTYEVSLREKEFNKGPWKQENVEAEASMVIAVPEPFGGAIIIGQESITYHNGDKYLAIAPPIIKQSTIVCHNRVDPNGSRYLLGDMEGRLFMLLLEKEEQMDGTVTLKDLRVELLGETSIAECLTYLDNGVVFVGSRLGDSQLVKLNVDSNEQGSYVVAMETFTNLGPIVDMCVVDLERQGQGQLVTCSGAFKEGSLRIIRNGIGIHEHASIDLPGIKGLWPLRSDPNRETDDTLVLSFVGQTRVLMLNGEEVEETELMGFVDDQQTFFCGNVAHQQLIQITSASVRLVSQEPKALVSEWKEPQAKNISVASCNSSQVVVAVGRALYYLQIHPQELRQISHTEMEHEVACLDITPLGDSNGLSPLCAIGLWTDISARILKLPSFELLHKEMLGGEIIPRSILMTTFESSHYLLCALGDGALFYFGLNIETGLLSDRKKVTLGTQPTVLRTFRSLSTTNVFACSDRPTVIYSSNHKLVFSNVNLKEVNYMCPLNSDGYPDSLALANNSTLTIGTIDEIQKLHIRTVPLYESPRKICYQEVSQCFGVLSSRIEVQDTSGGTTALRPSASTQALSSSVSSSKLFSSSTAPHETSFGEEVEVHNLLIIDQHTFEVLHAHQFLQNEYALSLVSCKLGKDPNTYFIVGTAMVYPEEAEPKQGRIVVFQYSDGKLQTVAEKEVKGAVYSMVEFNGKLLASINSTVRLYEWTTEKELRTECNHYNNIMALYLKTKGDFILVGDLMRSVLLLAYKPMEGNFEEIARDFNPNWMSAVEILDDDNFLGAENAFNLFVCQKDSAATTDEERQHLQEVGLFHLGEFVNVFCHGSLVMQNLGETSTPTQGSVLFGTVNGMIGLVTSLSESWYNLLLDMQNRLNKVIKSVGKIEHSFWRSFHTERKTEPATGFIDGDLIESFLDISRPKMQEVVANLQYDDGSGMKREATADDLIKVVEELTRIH
# Procedure: DCAF15 interactions with test compounds were monitored using HTRF competition assays (Cisbio, Bedford, MA). […] These two solutions were mixed and incubated for 15 min at room temperature. 9.8 ul of the tracer solution and 10 ul of the DCAF15/mAb Anti-6His-Eu cryptate Gold mixture were added sequentially to each well in the assay plate. Reaction mixtures with no DCAF15 added were included as […] controls. […] Binding was estimated based on ratiometric analysis and titration curves were generated in GraphPad Prism (7.00, GraphPad, La Jolla, CA).
# [2] = AlphaLISA, His-tagged DCAF15 complex and biotin-carrying RBM39, read-out: Ternary-RBM39 (RRM2) EC50
# T1 sequence (Q66K64 whole entry): as the sequence (Q66K64 whole entry) above
# T1 sequence (Q14498 250-328 limits assumed): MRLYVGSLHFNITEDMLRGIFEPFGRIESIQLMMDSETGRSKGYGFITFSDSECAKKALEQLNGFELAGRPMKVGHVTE
# T1 sequence (Q16531 whole entry partner): as the sequence (Q16531 whole entry partner) above
smiles,measurement,setting,value
"CCS(=O)(=O)CCNS(=O)(=O)c1ccc(S(=O)(=O)Nc2ccc(Cl)c3c(Cl)c[nH]c23)cc1 [Compound 3, N^1-(3,4-dichloro-1H-indol-7-yl)-N^4-(2-(ethylsulfonyl)ethyl) benzene-1,4-disulfonamide]",EC50,[1]; [2],< 1000 nM
"O=S1(=O)CCC(OCCNS(=O)(=O)c2ccc(S(=O)(=O)Nc3ccc(Cl)c4c(Cl)c[nH]c34)cc2)CC1 [Compound 4, N^1-(3,4-dichloro-1H-indol-7-yl)-N4_ (2-((1,1-dioxidotetrahydro-2H-thiopyran-4-yl)oxy)ethyl) benzene-1,4-disulfonamide]",EC50,[1]; [2],< 1000 nM
"O=S(=O)(NCCCOCc1ccccc1)c1ccc(S(=O)(=O)Nc2ccc(Cl)c3c(Cl)c[nH]c23)cc1 [Compound 5, N^1-(3-(benzyloxy)propyl)-N^4-(3,4-dichloro-1H-indol-7-yl)benzene-1,4-disulfonamide]",IC50,DCAF15,< 100000 nM
same,EC50,[1]; [2],< 20000 nM
"O=S(=O)(NCCOCC1CC1)c1ccc(S(=O)(=O)Nc2ccc(Cl)c3c(Cl)c[nH]c23)cc1 [Compound 6, N^1-(2-(cyclopropylmethoxy)ethyl)-N^4-(3,4-dichloro-1H-indol-7-yl)benzene-1,4-disulfonamide]",EC50,[1]; [2],< 5000 nM
"COCCOCCCNS(=O)(=O)c1ccc(S(=O)(=O)Nc2ccc(Cl)c3c(Cl)c[nH]c23)cc1 [Compound 7, N^1-(3,4-dichloro-1H-indol-7-yl)-N^4-(3-(2-methoxyethoxy)propyl)benzene-1,4-disulfonamide]",IC50,DCAF15,< 20000 nM
same,EC50,[1]; [2],< 5000 nM
"CC(C)(C)OC(=O)NC1(CNS(=O)(=O)c2ccc(S(=O)(=O)Nc3ccc(Cl)c4c(Cl)c[nH]c34)cc2)CC1 [Compound 9, tert-butyl (1-(((4-(N-(3,4-dichloro-1H-indol-7-yl)sulfamoyl)phenyl)sulfonamido)methyl)cyclopropyl) carbamate]",IC50,DCAF15,< 20000 nM
same,EC50,[1]; [2],< 20000 nM
"CCN(CC)C(=O)c1ccc(CNS(=O)(=O)c2ccc(S(=O)(=O)Nc3ccc(Cl)c4c(Cl)c[nH]c34)cc2)cc1 [Compound 12, 4-(((4-(N-(3,4-dichloro-1H-indol-7-yl)sulfamoyl)phenyl)sulfonamido)methyl)-N,N-diethylbenzamid]",EC50,[1]; [2],< 20000 nM
"O=S(=O)(NCCc1ccccn1)c1ccc(S(=O)(=O)Nc2ccc(Cl)c3c(Cl)c[nH]c23)cc1 [Compound 26, N^1-(3,4-dichloro-1H-indol-7-yl)-N^4-(2-(pyridin-2-yl)ethyl)benzene-1,4-disulfonamide]",EC50,[1]; [2],< 5000 nM
"O=S(=O)(Nc1ccc(Cl)c2c(Cl)c[nH]c12)c1ccc(S(=O)(=O)NC2CCNCC2)cc1 [Compound 29, N^1-(3,4-dichloro-1H-indol-7-yl)-N^4-(piperidin-4-yl)benzene-1,4-disulfonamide]",EC50,[1]; [2],< 1000 nM
"O=S(=O)(Nc1ccc(Cl)c2c(Cl)c[nH]c12)c1ccc(S(=O)(=O)NC2CCc3ccccc32)cc1 (centres unmarked) [Compound 34, N^1-(3,4-dichloro-1H-indol-7-yl)-N^4-(2,3-dihydro-1H-inden-1-yl)benzene-1,4-disulfonamide]",EC50,[1]; [2],< 20000 nM
"O=S(=O)(Nc1ccc(Cl)c2c(Cl)c[nH]c12)c1ccc(S(=O)(=O)N2CCCCC2)cc1 [Compound 37, N-(3,4-dichloro-1H-indol-7-yl)-4-(piperidin-1-ylsulfonyl)benzenesulfonamide]",EC50,[1]; [2],< 1000 nM
"O=S(=O)(Nc1ccc(Cl)c2c(Cl)c[nH]c12)c1cccc(S(=O)(=O)N2CCNCC2)c1 [Compound 41, N-(3,4-dichloro-1H-indol-7-yl)-3-(piperazin-1-ylsulfonyl)benzenesulfonamide]",EC50,[1]; [2],< 1000 nM
"CC1CNCCN1S(=O)(=O)c1ccc(S(=O)(=O)Nc2ccc(Cl)c3c(Cl)c[nH]c23)cc1 (centres unmarked) [Compound 46, N-(3,4-dichloro-1H-indol-7-yl)-4-((2-methylpiperazin-1-yl)sulfonyl)benzene sulfonamide]",EC50,[1]; [2],< 1000 nM
"CN1CCN(S(=O)(=O)c2ccc(S(=O)(=O)Nc3ccc(Cl)c4c(Cl)c[nH]c34)cc2)CC1 [Compound 48, N-(3,4-dichloro-1H-indol-7-yl)-4-((4-methylpiperazin-1-yl)sulfonyl)benzenesulfonamide]",EC50,[1]; [2],< 1000 nM
"CCOC(=O)N1CCN(S(=O)(=O)c2ccc(S(=O)(=O)Nc3ccc(Cl)c4c(Cl)c[nH]c34)cc2)CC1 [Compound 49, ethyl 4-((4-(N-(3,4-dichloro-1H-indol-7-yl)sulfamoyl)phenyl)sulfonyl)piperazine-1-carboxylate]",EC50,[1]; [2],< 5000 nM
"N#Cc1ccc(CCCN2CCN(S(=O)(=O)c3ccc(S(=O)(=O)Nc4ccc(Cl)c5c(Cl)c[nH]c45)cc3)CC2)cc1 [Compound 50, 4-((4-(3-(4-cyanophenyl)propyl)piperazin-1-yl)sulfonyl)-N-(3,4-dichloro-1H-indol-7-yl)benzenesulfonamide]",EC50,[1],< 1000 nM
"CCCN(c1ccc(S(=O)(=O)Nc2ccc(Cl)c3c(Cl)c[nH]c23)cc1)S(=O)(=O)C1CCN(C)CC1 [Compound 62, N-(4-(N-(3,4-dichloro-1H-indol-7-yl)sulfamoyl)phenyl)-1-methyl-N-propylpiperidine-4-sulfonamide]",EC50,[1]; [2],< 1000 nM
"O=S(=O)(Nc1ccc(Cl)c2c(Cl)c[nH]c12)c1ccc(NS(=O)(=O)C2CCNCC2)cc1 [Compound 65, N-(4-(N-(3,4-dichloro-1H-indol-7-yl)sulfamoyl)phenyl)piperidine-4-sulfonamide]",EC50,[1]; [2],< 5000 nM
"O=S(=O)(Nc1ccc(Cl)c2c(Cl)c[nH]c12)c1ccc(Br)cc1 [Compound 75, 4-bromo-N-(3,4-dichloro-1H-indol-7-yl)benzenesulfonamide]",EC50,[1]; [2],< 5000 nM
"Cc1ccc(NS(=O)(=O)c2ccc(S(=O)(=O)N(C)C3CNC3)cc2)c2[nH]cc(C#N)c12 [Compound 79, N^1-(azetidin-3-yl)-N^4-(3-cyano-4-methyl-1H-indol-7-yl)-N^1-methylbenzene-1,4-disulfonamide]",EC50,[1]; [2],< 1000 nM
"Cc1ccc(NS(=O)(=O)c2ccc(S(=O)(=O)N3CCCC(N)C3)cc2)c2[nH]cc(C#N)c12 (centres unmarked) [Compound 82, 4-((3-aminopiperidin-1-yl)sulfonyl)-N-(3-cyano-4-methyl-1H-indol-7-yl) benzenesulfonamide]",EC50,[1]; [2],< 1000 nM
"Cc1ccc(NS(=O)(=O)c2ccc(S(=O)(=O)N3CCNCC3)cc2)c2[nH]cc(C#N)c12 [Compound 83, N-(3-cyano-4-methyl-1H-indol-7-yl)-4-(piperazin-1-ylsulfonyl)benzene sulfonamide]",EC50,[1]; [2],< 1000 nM
"CCC1CN(S(=O)(=O)c2ccc(S(=O)(=O)Nc3ccc(C)c4c(C#N)c[nH]c34)cc2)CCN1 (centres unmarked) [Compound 84, N-(3-cyano-4-methyl-1H-indol-7-yl)-4-((3-ethylpiperazin-1-yl)sulfonyl) benzenesulfonamide]",EC50,[1]; [2],< 1000 nM
"COCCN1CCN(S(=O)(=O)c2ccc(S(=O)(=O)Nc3ccc(C)c4c(C#N)c[nH]c34)cc2)CC1 [Compound 85, N-(3-cyano-4-methyl-1H-indol-7-yl)-4-((4-(2-methoxyethyl)piperazin-1-yl)sulfonyl)benzenesulfonamide]",EC50,[1]; [2],< 1000 nM
"Cc1ccc(NS(=O)(=O)c2ccc(S(=O)(=O)N3CCNC(=O)C3)cc2)c2[nH]cc(C#N)c12 [Compound 89, N-(3-cyano-4-methyl-1H-indol-7-yl)-4-((3-oxopiperazin-1-yl)sulfonyl)benzenesulfonamide]",EC50,[1]; [2],< 1000 nM
"Cc1ccc(NS(=O)(=O)c2ccc(S(=O)(=O)N3CCOCC3)cc2)c2[nH]cc(C#N)c12 [Compound 90, N-(3-cyano-4-methyl-1H-indol-7-yl)-4-(morpholinosulfonyl)benzene sulfonamide]",EC50,[1]; [2],< 1000 nM
"Cc1ccc(NS(=O)(=O)c2ccc(S(=O)(=O)N3CC4(CNC4)C3)cc2)c2[nH]cc(C#N)c12 [Compound 93, 4-((2,6-diazaspiro[3.3]heptan-2-yl)sulfonyl)-N-(3-cyano-4-methyl-1H-indol-7-yl)benzenesulfonamide]",EC50,[1]; [2],< 1000 nM
"COCCc1cn(-c2cccc(S(=O)(=O)Nc3ccc(C)c4c(C#N)c[nH]c34)c2)nn1 [Compound 97, N-(3-cyano-4-methyl-1H-indol-7-yl)-3-(4-(2-methoxyethyl)-1H-1,2,3-triazol-1-yl)benzenesulfonamide]",EC50,[1]; [2],< 1000 nM
"Cc1ccc(NS(=O)(=O)c2cc(F)cc(C#N)c2)c2[nH]cc(C#N)c12 [Compound 98, 3-cyano-N-(3-cyano-4-methyl-1H-indol-7-yl)-5-fluorobenzenesulfonamide]",EC50,[1]; [2],< 1000 nM
"COc1cc(NS(=O)(=O)c2cccc(C#N)c2)c2[nH]cc(Cl)c2c1 [Compound 103, N-(3-chloro-5-methoxy-1H-indol-7-yl)-3-cyanobenzenesulfonamide]",EC50,[1]; [2],< 1000 nM
"O=C(NS(=O)(=O)c1ccc(Br)s1)c1ccc(Cl)cc1Cl [Tasisulam, tasisulam, reference compound]",EC50,[1]; [2],< 5000 nM
CCCC1CN(S(=O)(=O)c2ccc(S(=O)(=O)Nc3ccc(Cl)c4c(Cl)c[nH]c34)cc2)CCN1 (centres unmarked) [compound 110],IC50,DCAF15,< 5000 nM
C#CCOCCOCCOCC(=O)N(CCC)c1ccc(S(=O)(=O)Nc2ccc(Cl)c3c(Cl)c[nH]c23)cc1 [compound 132],EC50,[1]; [2],< 5000 nM
O=S(=O)(Nc1cccc2cc[nH]c12)c1ccc(S(=O)(=O)N2CCNCC2)cc1 [compound 145],EC50,[1]; [2],< 5000 nM
O=S(=O)(Nc1ccc(C2CC2)c2c(Cl)c[nH]c12)c1ccc(S(=O)(=O)N2CCNCC2)cc1 [compound 147],IC50,DCAF15,< 100000 nM
